According to the supplement of paper PMC10307832:

Assays:
Experiment in all cases: relative viability (nuclei count vs DMSO), 5 days (fraction); higher = more cells survive
NCI-H520 = tested on: NCI-H520
How it was run: (§1)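 Dosing by pin tool came one day after lung cancer cell lines were seeded in 1536-well plates, using either one drug or a fixed anchor-drug dose plus five library-drug doses (not always all listed) in √10 steps. After 5 days, nuclei were counted on 4× images. Relative viability is treated-well nuclei count divided by vehicle-well nuclei count, and values are medians of duplicate plates.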

NCI-H3122 = tested on: NCI-H3122
How it was run: as §1

NCI-H838 = tested on: NCI-H838
How it was run: as §1

NCI-H1944 = tested on: NCI-H1944
How it was run: as §1

SW 900 = tested on: SW 900
How it was run: as §1

NCI-H1666 = tested on: NCI-H1666
How it was run: as §1

NCI-H322M = tested on: NCI-H322M
How it was run: as §1

NCI-H441 = tested on: NCI-H441
How it was run: as §1

NCI-H1355 = tested on: NCI-H1355
How it was run: as §1

NCI-H2085 = tested on: NCI-H2085
How it was run: as §1

SW 1573 = tested on: SW 1573
How it was run: as §1

NCI-H460 = tested on: NCI-H460
How it was run: as §1

NCI-H2347 = tested on: NCI-H2347
How it was run: as §1

EKVX = tested on: EKVX
How it was run: as §1

NCI-H1734 = tested on: NCI-H1734
How it was run: as §1

LK-2 = tested on: LK-2
How it was run: as §1

NCI-H1755 = tested on: NCI-H1755
How it was run: as §1

H3255 = tested on: H3255
How it was run: as §1

NCI-H1650 = tested on: NCI-H1650
How it was run: as §1

NCI-H650 = tested on: NCI-H650
How it was run: as §1

NCI-H358 = tested on: NCI-H358
How it was run: as §1

NCI-H596 = tested on: NCI-H596
How it was run: as §1

ChaGo-K-1 = tested on: ChaGo-K-1
How it was run: as §1

A-427 = tested on: A-427
How it was run: as §1

NCI-H2228 = tested on: NCI-H2228
How it was run: as §1

CCCCCCCCCCCC1=C(O)C(=O)C=C(O)C1=O [Embelin] + COc1cccc2cc(-c3nc([C@H]4CC[C@H](C(=O)O)CC4)n4ncnc(N)c34)[nH]c12 [OSI-027] (partner 0.5 µM)
relative viability (NCI-H520; first compound 0.08 µM): 0.227 | relative viability (NCI-H520; first compound 0.8 µM): 0.319 | relative viability (NCI-H520; first compound 2.53 µM): 0.401 | relative viability (NCI-H520; first compound 8 µM): 0.238 | relative viability (NCI-H3122; first compound 0.08 µM): 0.857 | relative viability (NCI-H3122; first compound 0.8 µM): 1.15 | relative viability (NCI-H3122; first compound 2.53 µM): 1.31 | relative viability (NCI-H3122; first compound 8 µM): 0.875 | relative viability (NCI-H838; first compound 0.08 µM): 0.403 | relative viability (NCI-H838; first compound 0.8 µM): 0.463 | relative viability (NCI-H838; first compound 2.53 µM): 0.38 | relative viability (NCI-H838; first compound 8 µM): 0.436 | relative viability (NCI-H1944; first compound 0.08 µM): 0.41 | relative viability (NCI-H1944; first compound 0.8 µM): 0.462 | relative viability (NCI-H1944; first compound 2.53 µM): 0.358 | relative viability (NCI-H1944; first compound 8 µM): 0.425 | relative viability (SW 900; first compound 0.08 µM): 0.496 | relative viability (SW 900; first compound 0.8 µM): 0.541 | relative viability (SW 900; first compound 2.53 µM): 0.553 | relative viability (SW 900; first compound 8 µM): 0.347 | relative viability (NCI-H1666; first compound 0.08 µM): 0.798 | relative viability (NCI-H1666; first compound 0.8 µM): 0.935 | relative viability (NCI-H1666; first compound 2.53 µM): 0.871 | relative viability (NCI-H1666; first compound 8 µM): 0.865 | relative viability (NCI-H322M; first compound 0.08 µM): 0.523 | relative viability (NCI-H322M; first compound 0.8 µM): 0.744 | relative viability (NCI-H322M; first compound 2.53 µM): 0.645 | relative viability (NCI-H322M; first compound 8 µM): 0.512 | relative viability (NCI-H441; first compound 0.08 µM): 0.688 | relative viability (NCI-H441; first compound 0.8 µM): 0.742 | relative viability (NCI-H441; first compound 2.53 µM): 0.673 | relative viability (NCI-H441; first compound 8 µM): 0.647 | relative viability (NCI-H1355; first compound 0.08 µM): 0.445 | relative viability (NCI-H1355; first compound 0.8 µM): 0.559 | relative viability (NCI-H1355; first compound 2.53 µM): 0.422 | relative viability (NCI-H1355; first compound 8 µM): 0.279 | relative viability (NCI-H2085; first compound 0.08 µM): 0.743 | relative viability (NCI-H2085; first compound 0.8 µM): 0.84 | relative viability (NCI-H2085; first compound 2.53 µM): 0.699 | relative viability (NCI-H2085; first compound 8 µM): 0.646 | relative viability (SW 1573; first compound 0.08 µM): 0.6 | relative viability (SW 1573; first compound 0.8 µM): 0.768 | relative viability (SW 1573; first compound 2.53 µM): 0.896 | relative viability (SW 1573; first compound 8 µM): 0.573 | relative viability (NCI-H460; first compound 0.08 µM): 0.683 | relative viability (NCI-H460; first compound 0.8 µM): 0.88 | relative viability (NCI-H460; first compound 2.53 µM): 0.958 | relative viability (NCI-H460; first compound 8 µM): 0.751 | relative viability (NCI-H2347; first compound 0.08 µM): 0.428 | relative viability (NCI-H2347; first compound 0.8 µM): 0.468 | relative viability (NCI-H2347; first compound 2.53 µM): 0.412 | relative viability (NCI-H2347; first compound 8 µM): 0.527 | relative viability (EKVX; first compound 0.08 µM): 0.715 | relative viability (EKVX; first compound 0.8 µM): 0.677 | relative viability (EKVX; first compound 2.53 µM): 0.789 | relative viability (EKVX; first compound 8 µM): 0.743 | relative viability (NCI-H1734; first compound 0.08 µM): 0.648 | relative viability (NCI-H1734; first compound 0.8 µM): 0.771 | relative viability (NCI-H1734; first compound 2.53 µM): 0.618 | relative viability (NCI-H1734; first compound 8 µM): 0.608 | relative viability (LK-2; first compound 0.08 µM): 0.246 | relative viability (LK-2; first compound 0.8 µM): 0.226 | relative viability (LK-2; first compound 2.53 µM): 0.22 | relative viability (LK-2; first compound 8 µM): 0.194 | relative viability (NCI-H1755; first compound 0.08 µM): 0.829 | relative viability (NCI-H1755; first compound 0.8 µM): 0.709 | relative viability (NCI-H1755; first compound 2.53 µM): 0.634 | relative viability (NCI-H1755; first compound 8 µM): 0.691 | relative viability (H3255; first compound 0.08 µM): 0.586 | relative viability (H3255; first compound 0.8 µM): 0.628 | relative viability (H3255; first compound 2.53 µM): 0.63 | relative viability (H3255; first compound 8 µM): 0.587 | relative viability (NCI-H1650; first compound 0.08 µM): 0.791 | relative viability (NCI-H1650; first compound 0.8 µM): 0.801 | relative viability (NCI-H1650; first compound 2.53 µM): 0.653 | relative viability (NCI-H1650; first compound 8 µM): 0.598 | relative viability (NCI-H650; first compound 0.08 µM): 0.421 | relative viability (NCI-H650; first compound 0.8 µM): 0.623 | relative viability (NCI-H650; first compound 2.53 µM): 0.388 | relative viability (NCI-H650; first compound 8 µM): 0.549 | relative viability (NCI-H358; first compound 0.08 µM): 0.774 | relative viability (NCI-H358; first compound 0.8 µM): 1.01 | relative viability (NCI-H358; first compound 2.53 µM): 0.898 | relative viability (NCI-H358; first compound 8 µM): 1.07 | relative viability (NCI-H596; first compound 0.08 µM): 0.773 | relative viability (NCI-H596; first compound 0.8 µM): 0.854 | relative viability (NCI-H596; first compound 2.53 µM): 0.771 | relative viability (NCI-H596; first compound 8 µM): 0.454 | relative viability (ChaGo-K-1; first compound 0.08 µM): 0.572 | relative viability (ChaGo-K-1; first compound 0.8 µM): 0.636 | relative viability (ChaGo-K-1; first compound 2.53 µM): 0.699 | relative viability (ChaGo-K-1; first compound 8 µM): 0.556 | relative viability (A-427; first compound 0.08 µM): 0.424 | relative viability (A-427; first compound 0.8 µM): 0.495 | relative viability (A-427; first compound 2.53 µM): 0.439 | relative viability (A-427; first compound 8 µM): 0.497 | relative viability (NCI-H2228; first compound 0.08 µM): 0.697 | relative viability (NCI-H2228; first compound 0.8 µM): 0.673 | relative viability (NCI-H2228; first compound 2.53 µM): 0.726 | relative viability (NCI-H2228; first compound 8 µM): 0.485
